Experimental data reported in patent US20210338662A1, “ALPHA-2-ADRENOCEPTOR SUBTYPE C (ALPHA-2C) ANTAGONISTS FOR THE TREATMENT OF SLEEP APNEA” (Bayer Aktiengeseilschaft, priority 2018, published 2021).

Tested on: upper airway collapsibility in anaesthetized, spontaneously breathing pigs
Experiment: pig model of obstructive sleep apnea (OSA): upper airway collapsibility under negative pressure
Type: in vivo, German Landrace pigs
Conditions: i.v. bolus 1.5 mg/kg then i.v. infusion 0.475 mg/kg/h for four hours
Excerpt: The therapeutic potential of the compounds of formula (I) according to the present invention in sleep apnea has been assessed preclinically in a pig model of obstructive sleep apnea (OSA).
Using negative pressure, it is possible to induce collapse and thus obstruction of the upper respiratory tract in anaesthetized, spontaneously breathing pigs (Wirth K. J. et al., Sleep 36(5) (2013) pp. 699-708).
German Landrace pigs are used for the model. The pigs are anaesthetized and tracheotomized. Two tracheal are inserted into the trachea, one into the rostral part and the other into the caudal part of the trachea. Using a connection piece, the rostral cannula is connected to a tube to the negative pressure device and to the distal tracheal cannula. The distal tracheal cannula is additionally connected to a tube with an open end to atmosphere via a connection piece that served for free tracheal breathing, circumventing the upper airway. By appropriate opening and clamping of those tubes breathing can be switched from nasal breathing to breathing through the caudal tracheal cannula, circumventing the upper airway, and the (isolated) upper airway can be connected to the negative pressure device, causing airflow in the inspiratory direction.
At certain points in time, the collapsibility of the upper respiratory tract is tested by having the pig breathe via the caudal cannula and applying negative pressures of −50, −100 and −150 cm water head (cm H2O) to the upper respiratory tract. This causes the upper respiratory tract to collapse, which manifests itself in an interruption of the airflow and a pressure drop in the tube system. This test is conducted prior to the administration of the test substance and at certain intervals after the administration of the test substance. An appropriately effective test substance can prevent this collapse of the respiratory tract in the inspiratory phase.
FIG. 1: Effect of i.v. bolus injection of 1.5 mg/kg followed by an i.v. infusion of 0.475 mg/kg/h for four hours of the α2-Adrenoceptor subtype C (alpha-2C) antagonists of formula (I) ((S)-1-((2,3-dihydrobenzo[b][1,4]dioxin-2-yl)methyl)-4-(3-(methoxymethyl)pyridin-2-yl)piperazine given at time point 0 min on upper airway collapsibility at different levels of negative pressure. Percentages of pigs with no collapse are given. Mean values.

[1] = all negative pressures of −50, −100 and −150 cm
[2] = time 0 min (time point of administration), mean values

## COCc1cccnc1N1CCN(C[C@H]2COc3ccccc3O2)CC1 [(S)-1-((2,3-dihydrobenzo[b][1,4]dioxin-2-yl)methyl)-4-(3-(methoxymethyl)pyridin-2-yl)piperazine]
[1]
  duration of inhibition of upper airway collapsibility: up to five
  effect on upper airway collapsibility: inhibited upper airway collapsibility
[2]
  Percent pigs without collaps −50 cm H2O: 0%
  Percent pigs without collaps −100 cm H2O: 0%
  Percent pigs without collaps −150 cm H2O: 0%
Time 10 min
  Percent pigs without collaps −50 cm H2O: 100%
  Percent pigs without collaps −100 cm H2O: 100%
  Percent pigs without collaps −150 cm H2O: 100%
Time 30 min
  Percent pigs without collaps −50 cm H2O: 100%
  Percent pigs without collaps −100 cm H2O: 100%
  Percent pigs without collaps −150 cm H2O: 100%
Time 60 min
  Percent pigs without collaps −50 cm H2O: 100%
  Percent pigs without collaps −100 cm H2O: 100%
  Percent pigs without collaps −150 cm H2O: 100%
Time 120 min
  Percent pigs without collaps −50 cm H2O: 100%
  Percent pigs without collaps −100 cm H2O: 100%
  Percent pigs without collaps −150 cm H2O: 100%
Time 180 min
  Percent pigs without collaps −50 cm H2O: 100%
  Percent pigs without collaps −100 cm H2O: 100%
  Percent pigs without collaps −150 cm H2O: 100%
Time 240 min
  Percent pigs without collaps −50 cm H2O: 100%
  Percent pigs without collaps −100 cm H2O: 100%
  Percent pigs without collaps −150 cm H2O: 100%
Time 300 min
  Percent pigs without collaps −50 cm H2O: 100%
  Percent pigs without collaps −100 cm H2O: 100%
  Percent pigs without collaps −150 cm H2O: 100%
Time 330 min
  Percent pigs without collaps −50 cm H2O: 100%
  Percent pigs without collaps −100 cm H2O: 100%
  Percent pigs without collaps −150 cm H2O: 100%
